Laboratory results taken from US20100203110A1, “Therapeutics for Cancer Using 3-Bromopyruvate and Other Selective Inhibitors of ATP Production” (The Johns Hopkins University, priority 2006, published 2010).

Tested on: "metastatic" lung tumors
Assay: Systemic delivery via marginal ear vein, metastatic lung nodules
Format: in vivo, rabbit
Method: FIG. 4 depicts the effect of systemic delivery of 3-BrPA on animals harboring the liver implanted VX2 tumor. FIG. 4A depicts histological sections of 9 different tissues isolated 4 days after injecting 3-BrPA (25 ml 0.5 mM) into a marginal ear vein. No damage to these tissues is evident. (Magnification=120×). FIG. 4B depicts a section from a liver implanted VX2 tumor isolated from a control animal not receiving 3-BrPA. […] Cells in both appear completely viable. (Magnification 120×) FIG. 4D depicts a section of lung tissue isolated from an animal in which the liver harbored a VX2 tumor after 14 days of growth. […] (Animals evaluated=4).
Finally, it was important to examine the effect of 3-BrPA when delivered systemically (i.e., via the general circulation) on both animal toxicity and its capacity to damage liver implanted tumors.

Structure (SMILES): O=C(O)C(=O)CBr [3-bromopyruvate]
- metastatic lung tumors with a diameter greater than 1 mm (25 ml 0.5 mM, 4 days): almost complete disappearance
- number of metastatic lung tumors greater than 1 mm in diameter (of >27 tumors counted, untreated 5): none
